According to ChEMBL document CHEMBL1139784, “Design and evaluation of a potential mutagen for Hepatitis C virus” (Bioorg Med Chem Lett, 2007):

Tested on: Hepatitis C virus
Assay: Antiviral activity against HCV by viral replicon assay
Type: functional, organism-based, Hepacivirus hominis

## CC(C)(C)C(=O)SCCOP(=O)(OCCSC(=O)C(C)(C)C)OC[C@H]1O[C@@H](n2cc3cc[nH]c3nc2=O)[C@H](O)[C@@H]1O
  EC50: 60 µM
